ChEMBL document CHEMBL1201862, “PubChem BioAssay data set” (2004)
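In this assay, cells in 96-well plates receive the compound at five concentrations for 48 hours. Endpoints are linearly interpolated between the surrounding concentrations. Here, GI50 denotes the concentration required for 50% inhibition of growth.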 Active and inactive are the calls of the source. Rule as the data show it: active = GI50 up to about 1.1 µM and inactive = higher.

Experiments:
Assay in all cases: NCI tumour cell line growth inhibition, 48 h
[1] = test system: SW-620
[2] = test system: SK-MEL-5
[3] = test system: OVCAR-8
[4] = test system: ACHN
[5] = test system: NCI/ADR-RES
[6] = test system: SN12C
[7] = test system: MOLT-4
[8] = test system: SK-OV-3
[9] = test system: SK-MEL-28
[10] = test system: MDA-MB-231
[11] = test system: HL-60
[12] = test system: IGROV-1
[13] = test system: RPMI-8226
[14] = test system: NCI-H226
[15] = test system: UACC-62
[16] = test system: DLD-1
[17] = test system: DMS-114
[18] = test system: HOP-18
[19] = test system: SNB-78
[20] = test system: XF498

Measured: GI50

Nc1c(C(=O)Nc2ccc([As](=O)(O)O)cc2)cnc2nnnn12
inactive: [1] > 100 µM | [2] > 100 µM | [3] > 100 µM | [4] > 100 µM | [5] > 100 µM | [6] > 100 µM | [7] > 100 µM | [8] > 100 µM | [9] > 100 µM | [10] > 100 µM | [11] > 100 µM | [12] > 100 µM | [13] > 100 µM | [14] > 100 µM | [15] > 100 µM

CCOC(=O)CNC(=O)c1nc[nH]c1/N=N/N(C)C
inactive: [1] > 100 µM | [2] > 100 µM | [3] > 100 µM | [4] > 100 µM | [6] > 100 µM | [7] > 100 µM | [8] > 100 µM | [9] > 100 µM | [11] > 100 µM | [16] > 100 µM | [12] > 100 µM | [13] > 100 µM | [14] > 100 µM | [15] > 100 µM | [17] > 100 µM

CC(=O)NNc1nc(C)c(C(=O)/C=C/c2ccc(NC(C)=O)cc2)s1
inactive: [1] > 100 µM | [2] > 100 µM | [3] > 100 µM | [18] > 100 µM | [4] > 100 µM | [6] > 100 µM | [7] > 100 µM | [8] > 100 µM | [9] > 100 µM | [11] > 100 µM | [16] > 100 µM | [12] > 100 µM | [19] > 100 µM | [13] > 100 µM | [15] > 100 µM

Cn1c2ccccc2c(=O)c2c(O)cc3c(c21)C1OCC(C)(O)C1O3 (stereo unspecified)
inactive: [1] 80 µM | [2] 50.2 µM | [3] 34 µM | [4] 67.8 µM | [5] 42.9 µM | [6] 58.2 µM | [7] 28.2 µM | [8] 37.2 µM | [9] 83.9 µM | [10] > 100 µM | [11] 81.5 µM | [12] 25.3 µM | [13] 85.7 µM | [14] 10.5 µM | [15] > 10 µM

CCOc1ccccc1NC(=O)CC(C(=O)OC)C(=O)C(=O)OC (stereo unspecified)
inactive: [1] > 100 µM | [2] > 100 µM | [3] > 100 µM | [18] > 100 µM | [4] > 100 µM | [6] > 100 µM | [7] > 100 µM | [8] > 100 µM | [9] > 100 µM | [11] > 100 µM | [12] > 100 µM | [19] > 100 µM | [13] > 100 µM | [14] > 100 µM | [15] > 100 µM | [17] > 100 µM

N#CC(C#N)=Cc1c[nH]c(=O)[nH]c1=O
inactive: [1] 54.2 µM | [2] > 100 µM | [3] > 100 µM | [4] > 100 µM | [5] > 100 µM | [6] > 100 µM | [7] 43.1 µM | [8] > 100 µM | [9] > 100 µM | [10] > 100 µM | [11] > 100 µM | [12] > 100 µM | [13] > 100 µM | [14] > 100 µM | [15] > 100 µM

C#CCNC(Cc1c[nH]cn1)C(=O)O (stereo unspecified)
inactive: [1] > 100 µM | [2] > 100 µM | [3] > 100 µM | [4] > 100 µM | [5] > 100 µM | [6] > 100 µM | [7] > 100 µM | [8] > 100 µM | [9] > 100 µM | [10] > 100 µM | [11] 89.3 µM | [12] > 100 µM | [13] > 100 µM | [14] > 100 µM | [15] > 100 µM

COC(C)(C)CCc1[nH]c2ccccc2c1CC(=O)NCCc1cncn1C
inactive: [1] > 100 µM | [2] > 100 µM | [3] > 100 µM | [4] > 100 µM | [5] > 100 µM | [6] > 100 µM | [7] > 100 µM | [8] > 100 µM | [9] > 100 µM | [10] > 100 µM | [11] > 100 µM | [12] > 100 µM | [13] > 100 µM | [14] > 100 µM | [15] > 100 µM

COc1ccc(N2C(=O)C3c4[nH]c5ccccc5c4C4CCCCC4C3C2=O)cc1 (stereo unspecified)
inactive: [1] 29.1 µM | [2] 21.7 µM | [3] 11 µM | [18] 22.4 µM | [4] 22.5 µM | [6] 25.5 µM | [7] 16.1 µM | [8] 19.7 µM | [9] 10.6 µM | [11] 16.2 µM | [16] 49 µM | [12] 24.7 µM | [19] 2.29 µM | [13] 32.3 µM | [14] 27.4 µM | [15] 10.3 µM | [17] 8.63 µM

O=c1cc(-c2ccccc2)[nH]c2c(Cl)cccc12
inactive: [1] 3.86 µM | [2] 5.86 µM | [3] 16.6 µM | [4] 78 µM | [6] 46.2 µM | [7] 8.34 µM | [9] > 100 µM | [11] 9.12 µM | [16] 20.5 µM | [12] 4.86 µM | [13] 17 µM | [20] 26.8 µM | [14] 9.55 µM | [15] 4.55 µM | [17] 7.66 µM

NC(=O)CCSC(CC(=O)c1ccc(Cl)cc1)c1ccc(Cl)cc1 (stereo unspecified)
inactive: [1] 3.08 µM | [2] 17.2 µM | [3] 16.3 µM | [4] 34.7 µM | [5] 22.8 µM | [6] 28.2 µM | [7] 10.4 µM | [8] 38.1 µM | [9] 28.4 µM | [10] 40.2 µM | [11] 6.97 µM | [12] 16.2 µM | [13] 2.21 µM | [14] 36 µM | [15] 16.8 µM

CC1CC2(S(=O)(=O)c3ccccc3)ON1CC2S(=O)(=O)c1ccccc1 (stereo unspecified)
inactive: [1] > 100 µM | [3] > 100 µM | [4] > 100 µM | [6] > 100 µM | [7] > 100 µM | [8] > 100 µM | [9] > 100 µM | [11] > 100 µM | [16] > 100 µM | [12] > 100 µM | [13] > 100 µM | [20] > 100 µM | [14] > 100 µM | [15] > 100 µM | [17] > 100 µM

O=C(CC/C(CC(=O)c1ccc(Br)cc1)=N\O)Nc1ccc(Cl)c(Cl)c1
inactive: [1] 45.2 µM | [2] 29.8 µM | [3] > 100 µM | [18] 60.5 µM | [4] 65 µM | [6] > 100 µM | [7] 52.7 µM | [8] > 100 µM | [9] > 100 µM | [11] 19.6 µM | [16] > 100 µM | [12] 60.7 µM | [19] > 100 µM | [13] 46.1 µM | [14] > 100 µM | [15] 27.2 µM | [17] 27.9 µM

N#CC(C(=O)CCC(=O)Nc1ccc(Cl)cc1)c1ccccc1Cl (stereo unspecified)
inactive: [1] > 100 µM | [2] > 100 µM | [3] > 100 µM | [4] 54.8 µM | [6] > 100 µM | [7] > 100 µM | [8] > 100 µM | [9] > 100 µM | [11] > 100 µM | [16] 74.1 µM | [12] > 100 µM | [19] > 100 µM | [13] > 100 µM | [20] > 100 µM | [14] > 100 µM | [15] 16 µM | [17] > 100 µM

CCCCCCc1ccc(C(=O)NO)cc1
inactive: [1] 64.4 µM | [2] 47.1 µM | [3] 13.1 µM | [4] 22.9 µM | [5] 15.3 µM | [6] 21.9 µM | [7] 11.7 µM | [8] 40.2 µM | [9] 56.5 µM | [10] 95.7 µM | [11] 16.5 µM | [12] 24.5 µM | [13] 12.6 µM | [14] 24.4 µM | [15] 24.9 µM

Cc1cccc2c3ccc4c(c3n(C)c12)C(=O)C=CC4=O
inactive: [1] > 100 µM | [3] 89.1 µM | [6] > 100 µM | [7] 35.9 µM | [8] > 100 µM | [9] > 100 µM | [11] 17.1 µM | [16] > 100 µM | [12] > 100 µM | [19] > 100 µM | [13] 32.8 µM | [14] > 100 µM | [15] 59.7 µM | [17] 41.1 µM

CC(=O)NCCc1c[nH]c2ccc(Cl)cc12
inactive: [1] > 100 µM | [2] > 100 µM | [3] > 100 µM | [4] > 100 µM | [5] > 100 µM | [6] > 100 µM | [7] > 100 µM | [8] > 100 µM | [9] > 100 µM | [10] > 100 µM | [11] > 100 µM | [12] > 100 µM | [13] > 100 µM | [14] > 100 µM | [15] > 100 µM

Nc1ncnc2c1nc(-c1ccccc1)n2C1OC(CO)C(O)C1O (stereo unspecified)
inactive: [1] > 100 µM | [2] > 100 µM | [3] > 100 µM | [4] > 100 µM | [5] > 100 µM | [6] > 100 µM | [7] > 100 µM | [8] > 100 µM | [9] > 100 µM | [10] > 100 µM | [11] > 100 µM | [12] > 100 µM | [13] > 100 µM | [14] > 100 µM | [15] > 100 µM
